Five molecules from patent publication US20070191291A1, “Compound antibacterial drugs comprising n-acetyl-d-glucosamine” (priority 2003, published 2007) can be followed below.

SMILES strings stand for the structures. Like-named read-outs stand apart in the source and are kept apart here.

One test deals with Bacillus cereus. Description: Test Example 2: preventing formation of bacterial CGC in vitro (K-B method). The test is classed as cell-based. The procedure: (§1) E. coli (No. 33310, purchased from Chengdu Institute of Biological Products, the Ministry of Public Health) was used in the tests. Grid design was performed by using antibiotic with different concentrations and N-acetyl-D-glucosamine having an amount of from 10 mg to 300 mg. Streak plates were conducted separately, and K-B method was employed for drugs. Colonies at marginal part of drug inhibition zone were picked and were observed under microscope. If cell length was more than 50 μm and cell number was more than 5 in each visual field, it was deemed as CGC positive and was marked with “+”; while if cell length was not greater than 50 μm and cell number was within the range from 0 to 4 in each visual field, it was deemed as CGC negative and was marked with “−”. At this time, the ratio of two substances was called “effective ratio”.
(§2) Effects tests of compound preparation comprising N-acetyl-D-glucosamine and antibiotics for preventing the formation of bacterial CGC in vitro.
(§3) The tests were carried out in vitro, wherein gram-negative amphimicrodes, gram-negative anaerobes and gram-positive aerobes were separately coated on streak plates, test drugs and control drugs were separately dissolved with same volume of sterile water for injection, 10 μl of each drug was used for preparing drug-sensitive paper, K-B method was employed in the tests of drugs, and the inhibition situations of CGC formation were observed.

The test system of a further test is Bacillus proteus. The test is described as above. The test is classed as cell-based. The procedure: as §1, §2, §3
The subject of a further test is Bacteroides fragilis. The description is as above. The class given is cell-based. The procedure:
as §1, §2, §3

In a further test the test system is Citro Bacter. Described as above. The test is classed as cell-based. How it is done: as §1, §2, §3
A further test concerns Diphtheroid bacillus. The test is described as above. The test is classed as cell-based. The procedure:
as §1, §2, §3

For a further test, the system named is E. coli. Described as above. The class given is cell-based. How it is done:
as §1, §2, §3

In another test the test system is Klebsiella. The description is as above. The test is classed as cell-based. The procedure:
as §1, §2, §3

For a further test, the system named is Listeria. Described as above. The class given is cell-based. The procedure:
as §1, §2, §3

Another test concerns Nucleic Acid Bacter. The description is as above. The class given is cell-based. How it is done: as §1, §2, §3
Test [1] concerns rats infected and not infected by Bacillus typhi murium. The class given is in vivo, Wistar rats. The following applies: rats infected or not by Bacillus typhi murium, consecutive week, 15 rats per group.
For test [2], the system named is irritable bowel syndrome (IBS) caused by bacterial CGC. Description: Test Example 5: preventing irritable bowel syndrome (IBS) caused by bacterial CGC. The test is classed as in vivo, rats. The following applies: for CGCs in the rat stools after one week of drug withdrawal / CGCs in the stools of the rats: rats, effective dosage for consecutive 10 days, 30 rats per group; for CGCs in the stools of the rats: stools observed during administration and within 1 week after drug withdrawal. An excerpt: On this basis, the rats were subjected to stimulations such as electric stimulation, intragastric administration with fructus zanthoxyli water, cold, constraint etc. in order to induce IBS, and the incidence rates of IBS of two groups were observed.

Setting [3] is: compound preparation 150 mg N-acetyl-D-glucosamine + 150 mg ampicillin, control ampicillin.
Setting [4] is: first of three values given respectively: electric stimulation.
The mark [5] stands for this setting: second of three values given respectively: intragastric administration with fructus zanthoxyli water.
[6] abbreviates: third of three values given respectively: cold, constraint etc.
[7] abbreviates: compound preparation 100 mg N-acetyl-D-glucosamine + 300 mg cefuroxime, control 300 mg cefuroxime.
Setting [8] is: compound preparation 100 mg N-acetyl-D-glucosamine + 400 mg norfloxacin, control norfloxacin same dose.

Regarding `CC1(C)S[C@@H]2[C@H](NC(=O)[C@H](N)c3ccccc3)C(=O)N2[C@H]1C(=O)O` [Ampicillin, ampicillin], the CGC formation result in the test on Bacillus cereus (setting [3]) is “+ (If cell length was more than 50 μm and cell number was more than 5 in each visual field, it was deemed as CGC positive and was marked with “+”)”; in the test on Bacillus proteus (setting [3]), “+ (If cell length was more than 50 μm and cell number was more than 5 in each visual field, it was deemed as CGC positive and was marked with “+”)”; in the test on Bacteroides fragilis (setting [3]) it was “+ (If cell length was more than 50 μm and cell number was more than 5 in each visual field, it was deemed as CGC positive and was marked with “+”)”; in the test on Citro Bacter (setting [3]) it was “+ (If cell length was more than 50 μm and cell number was more than 5 in each visual field, it was deemed as CGC positive and was marked with “+”)”; in the test on Diphtheroid bacillus (setting [3]), “+ (If cell length was more than 50 μm and cell number was more than 5 in each visual field, it was deemed as CGC positive and was marked with “+”)”; in the test with E. coli (setting [3]) it was “+ (If cell length was more than 50 μm and cell number was more than 5 in each visual field, it was deemed as CGC positive and was marked with “+”)”. In addition, the CGC formation result in the test with Klebsiella (setting [3]) was “+ (If cell length was more than 50 μm and cell number was more than 5 in each visual field, it was deemed as CGC positive and was marked with “+”)”; with Listeria (setting [3]), “+ (If cell length was more than 50 μm and cell number was more than 5 in each visual field, it was deemed as CGC positive and was marked with “+”)”; in the test with Nucleic Acid Bacter (setting [3]) it was “+ (If cell length was more than 50 μm and cell number was more than 5 in each visual field, it was deemed as CGC positive and was marked with “+”)”. Also, the “positive rates of stool CGC and intestinal mucosa CGC” value (“positive rates” for short) in [1] (N-acetyl-D-glucosamine (100 mg)+ampicillin (200 mg) vs only ampicillin) is recorded as 100%. Also, the “incidence rate of IBS” value in test [2] (setting [4]), in [2] (setting [5]) and in test [2] (setting [6]) was 33% in each case. The “CGCs in the rat stools after one week of drug withdrawal” value (“CGCs in the rat stools after one week” for short) in test [2] is recorded as “still present”. Also, the “CGCs in the stools of the rats” value in [2] is recorded as “a large amount of CGCs appeared”.
In the case of `CO/N=C(\C(=O)N[C@@H]1C(=O)N2C(C(=O)O)=C(COC(N)=O)CS[C@H]12)c1ccco1` [Cefuroxime, cefuroxime], the CGC formation entry with Bacillus cereus (setting [7]) is “+ (If cell length was more than 50 μm and cell number was more than 5 in each visual field, it was deemed as CGC positive and was marked with “+”)”; in the test on Bacillus proteus (setting [7]), “+ (If cell length was more than 50 μm and cell number was more than 5 in each visual field, it was deemed as CGC positive and was marked with “+”)”; in the test on Bacteroides fragilis (setting [7]), “+ (If cell length was more than 50 μm and cell number was more than 5 in each visual field, it was deemed as CGC positive and was marked with “+”)”; with Citro Bacter (setting [7]) it was “+ (If cell length was more than 50 μm and cell number was more than 5 in each visual field, it was deemed as CGC positive and was marked with “+”)”; in the test on Diphtheroid bacillus (setting [7]), “+ (If cell length was more than 50 μm and cell number was more than 5 in each visual field, it was deemed as CGC positive and was marked with “+”)”; with E. coli (setting [7]), “+ (If cell length was more than 50 μm and cell number was more than 5 in each visual field, it was deemed as CGC positive and was marked with “+”)”. Also, the CGC formation entry was “+ (If cell length was more than 50 μm and cell number was more than 5 in each visual field, it was deemed as CGC positive and was marked with “+”)” in the test with Klebsiella (setting [7]); “+ (If cell length was more than 50 μm and cell number was more than 5 in each visual field, it was deemed as CGC positive and was marked with “+”)” with Listeria (setting [7]); “+ (If cell length was more than 50 μm and cell number was more than 5 in each visual field, it was deemed as CGC positive and was marked with “+”)” in the test on Nucleic Acid Bacter (setting [7]). The “positive rates” value in test [1] (N-acetyl-D-glucosamine (100 mg)+cefuroxime (300 mg) vs antibiotic only) is given as 100%. In addition, the “incidence rate of IBS” value in test [2] (setting [4]), in test [2] (setting [5]) and in [2] (setting [6]) was 33% throughout. Also, the “CGCs in the rat stools after one week” value in test [2] was “still present”. In [2], the “CGCs in the stools of the rats” value was “a large amount of CGCs appeared”.
Consider `CCn1cc(C(=O)O)c(=O)c2cc(F)c(N3CCNCC3)cc21` [Norfloxacin, norfloxacin], for which the CGC formation entry in the test on Bacillus cereus (setting [8]) was “+ (If cell length was more than 50 μm and cell number was more than 5 in each visual field, it was deemed as CGC positive and was marked with “+”)”; with Bacillus proteus (setting [8]) it was “+ (If cell length was more than 50 μm and cell number was more than 5 in each visual field, it was deemed as CGC positive and was marked with “+”)”; with Bacteroides fragilis (setting [8]), “+ (If cell length was more than 50 μm and cell number was more than 5 in each visual field, it was deemed as CGC positive and was marked with “+”)”; with Citro Bacter (setting [8]) it was “+ (If cell length was more than 50 μm and cell number was more than 5 in each visual field, it was deemed as CGC positive and was marked with “+”)”; in the test on Diphtheroid bacillus (setting [8]), “+ (If cell length was more than 50 μm and cell number was more than 5 in each visual field, it was deemed as CGC positive and was marked with “+”)”; in the test on E. coli (setting [8]) it was “+ (If cell length was more than 50 μm and cell number was more than 5 in each visual field, it was deemed as CGC positive and was marked with “+”)”. The CGC formation entry in the test with Klebsiella (setting [8]) was “+ (If cell length was more than 50 μm and cell number was more than 5 in each visual field, it was deemed as CGC positive and was marked with “+”)”; in the test with Listeria (setting [8]), “+ (If cell length was more than 50 μm and cell number was more than 5 in each visual field, it was deemed as CGC positive and was marked with “+”)”; with Nucleic Acid Bacter (setting [8]), “+ (If cell length was more than 50 μm and cell number was more than 5 in each visual field, it was deemed as CGC positive and was marked with “+”)”.
As for `CO[C@@]1(NC(=O)Cc2cccs2)C(=O)N2C(C(=O)O)=C(COC(N)=O)CS[C@@H]21` [cefoxitin], the “positive rates” value in test [1] (N-acetyl-D-glucosamine (100 mg)+cefoxitin (150 mg) vs only cefoxitin) amounted to 100%. The “incidence rate of IBS” value in [2] (setting [4]), in [2] (setting [5]) and in [2] (setting [6]) was 33% in each case. The “CGCs in the rat stools after one week” value in test [2] is “still present”. In [2], the “CGCs in the stools of the rats” value is reported as “a large amount of CGCs appeared”.
As for `O=C(O)c1cn(C2CC2)c2cc(N3CCNCC3)c(F)cc2c1=O` [ciprofloxacin], the “positive rates” value in test [1] (N-acetyl-D-glucosamine (100 mg)+ciprofloxacin (500 mg) vs only ciprofloxacin) is reported as 100%.
